Laboratory results taken from US5607967A, “Treatment of alzheimer's disease with 5-(tetradecyloxy)-2-furan carboxylic acid” (Merck & Co., Inc., priority 1994, dated 1997).

Columns and labels:
GR/NER chimeric receptor [1] = experiment: Ligand dependent transcription assay, GR/NER chimeric receptor with MMTV-luciferase reporter; type: cell-based, human
Experimental: To search for putative ligands for the NER receptor, the chimeric receptor GR/NER was prepared. […] Chimeric receptors were prepared in which the amino terminal portion of the mouse glucocorticoid receptor (mGR) that includes the DNA binding domain was fused to the putative ligand binding domains of the nuclear receptor NER to form the respective chimeric receptor GR/NER. The cDNA sequences coding for amino acid residues Arg^155 and Glu^156 of the hNER receptor (Shinar et al., NER, a new member of a gene family encoding the steroid hormone nuclear receptor; GENE (in press) were convened to the Xho I restriction site, which site was later used for the ligation to the GR cDNA sequences that coded for the DNA binding domain. Thus, the amino acid residues Arg^155 and Glu^156 of the NER receptor were convened to amino acid residues Ser^155 and His^156.
The chimera was employed in ligand dependent transactivation assays with the reporter gene MMTV-luciferase, in which the luciferase cDNA is transcribed under the control of the MMTV promoter.
Similar hybrid receptors GR/NER, GR/NUC and GR/PPAR, in identical expression plasmid backgrounds were prepared essentially as described for the construction of the GR/mPPAR and GR/NUC chimeric receptors in Schmidt et al., "Identification of a new member of the steroid hormone receptor superfamily that is activated by a peroxisome proliferator and fatty acids," Mol. Endocrinol., 6(10):1634-41, 1992, and in Boie et al., "Enantioselective activation of the peroxisome proliferator-activated receptor", J. Biol. Chem. 268(8):5530-4, 1993.
Briefly, the amino terminal portion of the mouse glucocorticoid receptor (mGR), that includes the DNA binding domain was fused to the putative ligand binding domains of the nuclear receptor NER, hNUC-I (Schmidt et al., 1992), mPPAR (Issenmann and Green, 1990) to form the respective chimeric receptors GR/NER, GR/NUC and GR/PPAR. The GR/NER chimeric receptor was constructed as described for the GR/NUC and GR/PPAR hybrid receptors (Schmidt et al., 1992; Boie et al). The cDNA sequences coding for amino acids Arg^155 and Glu^156 of the NER receptor were converted to the Xho I restriction site, that was later used for the ligation to the GR cDNA sequences that coded for the DNA binding domain. Thus, converting amino acid residues Arg^155 and Glu^156 of NER receptor to amino acid residues Ser^155 and His^156.

GR/NER chimeric receptor [2] = experiment: Activation of GR/NER in CV1 cells (luciferase)
Experimental: The ligand dependent transcription assays were performed as described in Example 4, using CV1 cells in place of COS cells. The transfected CV1 cells were treated with dopamine, TOFA, or with a combination of TOFA and dopamine at the indicated concentrations and tested for luciferase activity.
CV1 cells were co-transfected with the MMTV-Luciferase reporter gene (pJA358) and the GR/NER chimeric receptor as described in Example 4. The cells were treated with increasing amount of the dopamine D1 receptor antagonist SCH 23390 with or without 50 μM […] dopamine.

PC12 cells = experiment: Neurite differentiation of PC12 cells; type: cell-based; conditions: TOFA alone, without NGF
acetyl-CoA carboxylase = conditions: high doses, i.e. 0.15% of diet; cited from earlier work
[3] = molecular target: T1, native mouse glucocorticoid receptor (Mus musculus, UniProt P06537); experiment: Transcription assay, native glucocorticoid receptor co-transfected with MMTV-luciferase reporter
T1 sequence (P06537 1-792): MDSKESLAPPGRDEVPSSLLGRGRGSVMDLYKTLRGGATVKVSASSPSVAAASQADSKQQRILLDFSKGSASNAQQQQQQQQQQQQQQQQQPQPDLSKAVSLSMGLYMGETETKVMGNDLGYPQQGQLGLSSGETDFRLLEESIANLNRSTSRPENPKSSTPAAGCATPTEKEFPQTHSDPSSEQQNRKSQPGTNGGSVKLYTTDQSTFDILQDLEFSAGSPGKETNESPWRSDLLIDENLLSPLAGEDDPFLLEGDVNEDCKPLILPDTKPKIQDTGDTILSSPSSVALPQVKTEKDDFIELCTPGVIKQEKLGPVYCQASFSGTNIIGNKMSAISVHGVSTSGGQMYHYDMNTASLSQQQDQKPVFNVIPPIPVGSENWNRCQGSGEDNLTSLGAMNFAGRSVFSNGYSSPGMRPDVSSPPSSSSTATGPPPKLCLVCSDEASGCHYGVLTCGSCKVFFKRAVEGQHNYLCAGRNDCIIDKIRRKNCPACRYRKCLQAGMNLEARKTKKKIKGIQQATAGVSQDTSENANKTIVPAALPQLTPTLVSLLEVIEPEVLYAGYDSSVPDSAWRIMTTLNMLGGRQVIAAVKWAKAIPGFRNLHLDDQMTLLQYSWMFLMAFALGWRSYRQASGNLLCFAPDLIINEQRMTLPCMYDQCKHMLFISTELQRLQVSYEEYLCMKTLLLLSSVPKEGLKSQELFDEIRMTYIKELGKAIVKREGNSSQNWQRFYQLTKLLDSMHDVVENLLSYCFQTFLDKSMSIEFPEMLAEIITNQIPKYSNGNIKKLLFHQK
Experimental: The reporter gene was the plasmid pJA358 in which the expression of firefly luciferase is regulated by two tandem repeats of the glucocorticoid hormone response element (GRE) linked to the MMTV promoter (Boie et al., 1993).
Transient transfection of COS and CV1 cells was performed as described (Schmidt 1992). Cells were plated (1.5×10^5 in 1 mL) into 12 well dishes in phenol red-free medium supplemented with activated charcoal treated fetal calf serum. The next day 0.12 mL of DNA 10 μg/ml (5 μg receptor DNA and 5 μg reporter plasmid), as a calcium phosphate precipitate, was added to the cells. Ligands were added to the cells 30 minutes after transfection. The next day (18 hours), the cells were washed and fresh ligands added. Twenty-four hours later, cell extracts were prepared and assayed for luciferase enzyme activity using the luciferase assay system (Promega Madison, Wis.). Each transfection was performed in triplicate and the luciferase activity of each sample measured in duplicate using the AutoClinilumat (Berthold Nashua, N.H.).
The transfected cells were treated with TOFA at 2 μM, 10 μM, 20 μM, and 50 μM and oleic acid at 50 μM, and 300 μM.

[4] = read-out: Fold of stimulation GR

With `CCCCCCCCCCCCCCOc1ccc(C(=O)O)o1` [TOFA, 5-(tetradecyloxy)-2-furan carboxylic acid] as the molecule, how does the “Expression mediated by GR/NER” value (GR/NER chimeric receptor [1]) read?
The value was “stimulated expression”.

And the “Fold of stimulation GR/NER” value (GR/NER chimeric receptor [1]; 2 μM)?
The value was 2.35 ± 0.09 fold.

And the “Fold of stimulation GR/NER” value (GR/NER chimeric receptor [1]; 10 μM)?
Its value is 3.66 ± 0.40 fold.

What about the “Fold of stimulation GR/NER” value (GR/NER chimeric receptor [1]; 20 μM) of the same molecule?
The value was 4.82 ± 0.28 fold.

And the “Fold of stimulation GR/NER” value (GR/NER chimeric receptor [2]; TOFA 10 μM with dopamine 100 μM)?
Its value is 1.40 ± 0.05 fold.

And the “Fold of stimulation GR/NER” value (GR/NER chimeric receptor [2]; TOFA 100 μM with dopamine 100 μM)?
The value was 1.60 ± 0.07 fold.

What about the “Fold of stimulation GR/NER” value (GR/NER chimeric receptor [2]; TOFA 100 μM, no dopamine) of the same molecule?
The value was 3.70 ± 0.06 fold.

What about the “Neurite outgrowth” value (PC12 cells) of the same molecule?
Its value is “did not induce neurite outgrowth”.

And the “Fatty acid synthesis in vivo” value (acetyl-CoA carboxylase)?
Its value is “inhibit fatty acid synthesis”.

What about the “Expression of MMTV-luciferase reporter after co-transfection of native glucocorticoid receptor” value [3] of the same molecule?
The value was “did not stimulate expression”.

And the fold induction at 2 µM [3, 4]?
Its fold induction at 2 µM is 1.02 ± 0.4.

And the fold induction at 10 µM [3, 4]?
The fold induction at 10 µM was 0.8 ± 0.14.

And the fold induction at 50 µM [3, 4]?
The fold induction at 50 µM was 0.91 ± 0.3.
